# According to article PMC8786932, “Bicyclic azetidines target acute and chronic stages of Toxoplasma gondii by inhibiting parasite phenylalanyl t-RNA synthetase” (Nature Communications, 2022):
# “And” between values parts separate entries of the source, which are not always exact repeats. Equal entries are not always repeated.
# Legend:
# [1] = molecular target: T1, TgPheRS[L497I] (Toxoplasma gondii, UniProt A0A125YPN6, L497I); assay: Enzyme assay, TgPheRS L497I; type: biochemical; details: for enzyme assay readout (raw): L497I
# T1 sequence (A0A125YPN6 1-525 L497I): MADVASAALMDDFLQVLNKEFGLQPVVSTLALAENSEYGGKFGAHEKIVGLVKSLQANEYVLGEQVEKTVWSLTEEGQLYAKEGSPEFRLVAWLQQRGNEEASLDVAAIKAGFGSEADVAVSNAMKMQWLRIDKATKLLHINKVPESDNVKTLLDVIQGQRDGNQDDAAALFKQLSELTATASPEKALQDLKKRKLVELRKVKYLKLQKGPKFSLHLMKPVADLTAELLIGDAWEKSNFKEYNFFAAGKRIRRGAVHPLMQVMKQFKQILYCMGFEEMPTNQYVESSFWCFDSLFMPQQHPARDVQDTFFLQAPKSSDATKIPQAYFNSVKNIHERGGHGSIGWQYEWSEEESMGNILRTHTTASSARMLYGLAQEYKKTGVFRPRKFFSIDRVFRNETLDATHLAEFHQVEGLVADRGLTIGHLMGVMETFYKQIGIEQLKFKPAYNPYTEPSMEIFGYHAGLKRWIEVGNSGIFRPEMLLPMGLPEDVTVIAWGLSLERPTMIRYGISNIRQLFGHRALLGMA
# T1 sequence (S8EZ50 1-675 partner): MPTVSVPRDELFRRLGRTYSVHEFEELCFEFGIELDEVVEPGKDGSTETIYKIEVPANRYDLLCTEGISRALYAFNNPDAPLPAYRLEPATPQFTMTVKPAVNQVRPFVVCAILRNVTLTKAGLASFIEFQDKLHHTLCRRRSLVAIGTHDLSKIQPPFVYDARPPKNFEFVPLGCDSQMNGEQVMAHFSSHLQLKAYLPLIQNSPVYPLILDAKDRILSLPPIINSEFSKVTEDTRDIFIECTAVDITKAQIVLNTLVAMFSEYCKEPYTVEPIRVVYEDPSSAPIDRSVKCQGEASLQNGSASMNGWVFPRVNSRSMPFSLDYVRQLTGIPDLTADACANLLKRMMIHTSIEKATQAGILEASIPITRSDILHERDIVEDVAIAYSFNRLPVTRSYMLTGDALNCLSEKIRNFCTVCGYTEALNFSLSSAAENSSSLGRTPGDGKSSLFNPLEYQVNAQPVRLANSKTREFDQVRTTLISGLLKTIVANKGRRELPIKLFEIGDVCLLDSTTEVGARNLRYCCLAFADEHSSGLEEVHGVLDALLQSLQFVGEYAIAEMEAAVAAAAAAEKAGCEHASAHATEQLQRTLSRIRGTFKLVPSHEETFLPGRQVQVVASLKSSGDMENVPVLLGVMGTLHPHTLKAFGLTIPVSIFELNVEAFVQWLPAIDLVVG
# [2] = system: T. gondii residual infection; assay: ELISA of survivors and bioassay of brain homogenate into naive recipient mice; type: in vivo, Ifngr1-/- mice
# Procedure: Testing of compounds to prevent reactivation of chronic infection was […] to test the efficacy of PheRS inhibitors against chronic infection. In both cases, male and female C57BL/6 Ifngr1^−/− mice were infected by oral gavage with 5 cysts of the ME49-Fluc strain isolated from chronically infected CBA/J mice. Compound BRD7929 was formulated at 1 mg/mL in freshly prepared compound resuspension buffer (vehicle; 10% ETOH, 4% Tween-80 in 1xPBS), aliquoted for single use and stored at −20 °C. In the first protocol, at 48 h post-infection, animals were given sulfadiazine (0.25 g/L in drinking water) for 20 days post-infection to prevent death during acute infection and to allow establishment of chronic infection. Two days after completion of the sulfadiazine treatment, one cohort of mice were treated once a day with 10 mg/kg BRD7929 by oral gavage for 16 days and control mice received an equal volume of vehicle during the same time frame. Animals were monitored for survival and weight loss for 30 days post-treatment. […] All mice were monitored for survival and weight loss every two days for the duration of treatment and for an additional >20 days post-treatment. […] Recipient mice were monitored for 20 days for survival, weight loss, and seroconversion by ELISA.
# [3] = mouse; cited from earlier work
compound,measurement,setting,value
COc1ccc(NC(=O)N2CCCCN3[C@H](CN(C)C)[C@H](c4ccc(C#Cc5ccccc5)cc4)[C@@H]3C2)cc1 [BRD7929],enzyme assay readout (raw),[1]; 0.000005 μM,0.3299 and 0.3217 and 0.3007
same,enzyme assay readout (raw),[1]; 0.000050 μM,0.3157 and 0.3171 and 0.3115
same,enzyme assay readout (raw),[1]; 0.000500 μM,0.3154 and 0.3074 and 0.3183
same,enzyme assay readout (raw),[1]; 0.005000 μM,0.2831 and 0.3060 and 0.3128
same,enzyme assay readout (raw),[1]; 0.050000 μM,0.3012 and 0.2839 and 0.2985
same,enzyme assay readout (raw),[1]; 0.500000 μM,0.2641 and 0.2615 and 0.2741
same,enzyme assay readout (raw),[1]; 5.000000 μM,0.2401 and 0.2141 and 0.2271
same,enzyme assay readout (raw),[1]; 50.000000 μM,0.1719 and 0.1728 and 0.1711
same,IC50,"[1]; Table S4, L497I, read-out: IC50 (enzyme inhibition)",1.32 µM
same,bioassay of brains of surviving treated mice in naive recipients,"[2]; oral challenge model survivors, recipients monitored 20 days",All recipient mice survived and remained seronegative
same,bioassay of brain homogenate of the surviving animal,[2]; reactivation model survivor,failed to detect any residual infection
same,oral bioavailability,[3],80%
